Test results published in US9950007B2, “Neuronal protection by cerium oxide nanoparticles” (UNIVERSITY OF CENTRAL FLORIDA RESEARCH FOUNDATION, INC., priority 2011, dated 2018).
“Also recorded” adds a separate entry of the source.

Assays:
[1] = ONOO^−-mediated APF oxidation in vitro (fluorescence spectroscopy); details: ONOO^− 20 μM, fluorescence 515 nm (ex. 490 nm)
Experimental: To obtain further insight into the ONOO^− scavenging abilities of CeO2 NPs, the yield of oxidized APF was followed by fluorescent spectroscopy using the oxidizable probe, 3′-(p-aminophenyl) fluorescein (APF) as an indicator (FIG. 2B). APF is an aromatic amino-fluorescein derivative that has little intrinsic fluorescence but undergoes oxidation by only hydroxyl radical, hypochlorate ion, and certain peroxidase intermediates such as ONOO^−, but is inert to NO., O2^⋅− and H2O2 (40).
ONOO^− (20 μM) was added to APF along with varying amounts CeO2 NPs. Glutathione (Fisher, Fair Lawn, N.J.) and uric acid (Avocado, Research Chemicals, Ltd.) known scavengers of ONOO^−, were used as positive controls. Fluorescence at 515 nm (ex. 490 nm) was measured using a Varian Cary Eclipse fluorescence spectrophotometer (Palo Alto, Calif.).

[2] = Decay of ONOO^− followed at 302 nm by UV-visible spectroscopy
Experimental: The decay of ONOO^− was followed in the absence and presence of CeO2 NPs (FIG. 2A and Supplementary FIG. 3: Effect of CeO2 NPs on the rate of decay of ONOO— in vitro varying pH. ONOO— (25 μM) was added at various pH's alone and in the presence of CeO2 NPs (100 μM), SiO2 NPs (100 μM), glutathione (GSH) (0.5 mM). (A) Peroxynitrite absorbance followed at 302 nm in 100 mM sodium phosphate buffer at pH 8.6. (N=4). GSH, known general scavenger and SiO2 NPs were added as positive and negative controls, respectively. Rate of ONOO—(black traces) decomposition was increased with CeO2 NPs (blue traces) in a similar manner of GSH (red traces). Rate of decomposition was not affected by presence of SiO2 NPs (green traces). B) 100 mM sodium phosphate buffer at pH 9.5. (N=3). Rate of ONOO—(black traces) decomposition was increased with CeO2 NPs (blue traces) in a similar manner of GSH (red traces). Absorbance was normalized by subtracting the final absorbance from initial absorbance and dividing by the amplitude. As stock solutions of ONOO— contain 0.3 M NaOH, control incubations were performed with equivalent amounts of NaOH. All in vitro experiments were performed using phosphate buffers containing 1 μM DPTA.). The in vitro assays were repeated using various phosphate buffers while varying the pH's. Since carbon dioxide is known to enhance the rate of ONOO^− decomposition (38), the change in absorbance at 302 nm was followed in potassium phosphate buffer (pH 8.0), which was degassed by argon. […] This change of absorbance in response to addition of CeO2 NPs in these studies also mimics the scavenging seen with glutathione, a known antioxidant that protects cells from free radicals and peroxides (39). […]
UV-visible spectroscopy was used to measure decomposition of ONOO^− in the presence and absence of CeO2 NPs. […] Each sample was analyzed for a total of 600 seconds with a cycle time of 0.5 seconds at a wavelength of 302 nm using buffer containing 100 mM sodium phosphate buffer (pH 9.5-8.0) and 1 μM diethylenetriaminepentaacetic acid (DPTA) with or without CeO2 NPs. […]

[3] = system: DRP1 phosphorylation at S616; assay: Western blot of p-DRP1 S616 in neurons; type: cell-based, rat; details: preaggregated Aβ 25-35 10 μM, 6 h; nanoceria 100 nM or NAC 50 μM, 3 h pretreatment
Experimental: To measure the levels of p-DRP1 S616, neurons were lysed in buffer containing 50 mM Tris-Cl, pH 7.0, 150 mM NaCl, 1 mM MgCl2, 1 mM NaF, 1 mM NaVO4, 1% NP40, 10% glycerol and complete Protease Inhibitor Cocktail Tablets (Roche Applied Science, US). Membranes were blocked with 5% nonfat milk in TBS (pH 8.0) with 0.05% Tween20 for 3 h at room temperature (RT) and were incubated with primary rabbit polyclonal antibodies for p-DRP1 S616 (Cell Signaling) (1:1000) overnight at 4° C. The membranes were then washed four times (5 min) with TBS (0.05% Tween) and incubated for 2 h at room temperature with anti-rabbit horseradish peroxidase-conjugated secondary antibodies (GE Healthcare)(1:15,000) in blocking solution. After 4 washes (5 min) of TBS (0.05% Tween), immunocomplexes were then detected using the Super-Signal West-Dura or Femto chemiluminescent substrates (Pierce, Thermoscientific, Rockford, Ill.). For re-probing the membranes were stripped with Restore Western Blot Stripping Buffer (Thermo-Scientific) according to the manufacturer and incubated with mouse monoclonal antibodies for DRP1 (BD Biosciences, clone 8/DLP1) (1:1000) antibody or with polyclonal rabbit antibodies for β-actin (Cell Signaling) (1:1000).

cortical neurons = assay: Scoring for neuronal cell death under nitrosative stressors; type: cell-based, rat; details: oligomerized Aβ 25-35 10 μM, 6 h; nanoceria 100 nM or NAC 50 μM, 3 h pretreatment
Experimental: To assess the neuronal protection capabilities of CeO2 NPs, pure cortical neuronal cultures transfected with DsRed2-Mito were pretreated with CeO2 NPs (100 nM) and subjected to various treatments known to increase RNS. […] Cell death was evaluated by condensed nuclei accompanied by shrunken soma and mitochondrial fragmentation (FIG. 4A center panel).
Cultures were either transfected with DsRed2-Mito on day 5 using LipoFectamine2000® or immunostained for microtubule-associated protein 2 (MAP2) for visualization of processes. Experiments were performed after 11-14 days in vitro (DIV) with 3-NP, glutamate or NMDA. SNOC treated cultures were performed after 8 DIV. Neurons were pretreated with CeO2 NPs for various time points, 3 h, 12 h, 24 h or 72 h. For cultures treated with 3-NP (diluted in EBSS and pH adjusted to 7.4 with NaOH), 3-NP was diluted in individual culture's conditioned medium before exchange and cultures left for 8 h. Brief exposure to NMDA was carried as follows. […] Cells with fragmented mitochondria and condensed chromatin by Hoechst 33342 staining were scored as dead neurons. To evaluate mitochondrial fragmentation and cell death of a large number of neurons, manual scoring was carried out of neurons grown on glass coverslips using conventional fluorescence microscopy. […]

[4] = system: mitochondrial morphology in cortical neurons; assay: Mitochondrial fragmentation in neurons expressing DsRed2-Mito; type: cell-based, rat; details: Aβ 25-35 10 μM, 6 h; nanoceria 100 nM or NAC 50 μM, 3 h pretreatment
Description: To test whether nanoceria would prevent the Aβ-induced mitochondrial fragmentation, the mitochondrial morphology by fluorescence microscopy in neurons expressing DsRed2-Mito, a red fluorescent protein targeted to the mitochondrial matrix was visualized.
Cultures were either transfected with DsRed2-Mito on day 5 using LipoFectamine2000® or immunostained for microtubule-associated protein 2 (MAP2) for visualization of processes. […] For Aβ (25-25) treated cultures, Aβ (25-35) or reverse (35-25) was left to oligomerize for 24 h at 25° C. before adding to cultures at 10 μM for 6 h. Cells were fixed in 3.7% formaldehyde and 5% sucrose in PBS for 20 min at 37° C. […] Cells with fragmented mitochondria and condensed chromatin by Hoechst 33342 staining were scored as dead neurons. To evaluate mitochondrial fragmentation and cell death of a large number of neurons, manual scoring was carried out of neurons grown on glass coverslips using conventional fluorescence microscopy.
Neurons were grown on poly-Lysine coated glass cover slips as described before and transfected with DsRed2-Mito after 5 days in vitro (DIV) using Lipofectamine2000®. […] Quantification of mitochondrial fragmentation and neuronal cell death was performed as described (30). Fluorescence microscopy and image acquisition of mitochondrial morphology was performed as previously described (98).

[5] = cited from earlier work

## N[C@@H](CCC(=O)N[C@@H](CS)C(=O)NCC(=O)O)C(=O)O [GSH, glutathione]
[1]
  oxidation of APF by ONOO^−: prevented the oxidation of APF
[2]; 100 mM sodium phosphate buffer pH 8.6, ONOO^− 25 μM, CeO2 NPs 100 μM, SiO2 NPs 100 μM, GSH 0.5 mM
  rate of ONOO^− decomposition: increased
[2]; 100 mM sodium phosphate buffer pH 9.5, ONOO^− 25 μM, CeO2 NPs 100 μM, GSH 0.5 mM
  rate of ONOO^− decomposition: increased

## CC(=O)N[C@@H](CS)C(=O)O [NAC, N-acetyl-L-cysteine]
[3]
  Aβ 25-35-induced DRP1 S616 phosphorylation: abolished
Cortical neurons
  cell viability / cell death after Aβ (25-35): relieved; also recorded: reduced
[4]
  Aβ25-35-induced mitochondrial fragmentation (fluorescence micrographs): prevented

## O=c1[nH]c(=O)c2[nH]c(=O)[nH]c2[nH]1 [uric acid]
[1]
  oxidation of APF by ONOO^−: prevented the oxidation of APF
[2]; potassium phosphate buffer pH 8.0, degassed by argon, absorbance 302 nm
  rate of ONOO^− decomposition: increased

## nitro-tyrosine
[5]
  pKa: 7.4
